Legend:
[1] = target: T1, human S1P1 (EDG1) receptor (Homo sapiens, UniProt P21453); test: S1P1 β-arrestin recruitment (Tango) assay to determine EC50 values; type: cell-based; conditions: Tango-EDG1 bla U2OS cells, 16 h incubation
T1 construct: host or cells: U2OS (Tango EDG1-bla U2OS)
Excerpt: S1P1 β-Arrestin Recruitment (Tango) Assay to Determine EC50 Values
Upon ligand activation, G protein-coupled receptors (GPCR) trigger two pathways that independently transduce signals to the cell: one through heterotrimeric GTP-binding proteins (G proteins) and one through β-arrestins. Agonist-induced GPCRs recruit β-arrestin proteins, which then bind to the carboxy-terminal domain of ligand-activated GPCRs. The amount of β-arrestin recruitment can be used to assess the potency and efficacy of GPCR activating ligands.
To measure the potency and efficacy of compounds as S1P1 (EDG1) receptor agonists, Tango™-EDG1 bla U2OS cells (Invitrogen, USA, Catalog #K1520) are used. The Tango™ GPCR technology is based on GeneBLAzer β-lactamase reporter cell assays, which uses a mammalian-optimized β-lactamase reporter gene (bla) combined with a FRET-enabled substrate. The host cells, U2OS, stably express a human S1P1 (EDG1) receptor/transcription factor (TF) fusion protein. The cells also express a recombinant protease tagged β-arrestin protein, which is recruited to the S1P1 receptor upon ligand stimulation and specifically cleaves the S1P1-TF fusion protein. The released TF activates the β-lactamase (bla) reporter gene. To measure the reporter gene activity, cells are loaded with a fluorescent substrate containing two chemically coupled fluorophores, coumarin and fluorescein. […] In the presence of bla, the chemical bond is cleaved and FRET is inhibited. […] The amount of β-arrestin recruitment is proportional to the increase in blue fluorescence.
Tango™-EDG1 bla U2OS cells are cultivated in McCoy's 5A containing 10% dialyzed FBS, 0.1 mM NEAA, 25 mM HEPES, 1 mM sodium pyruvate, 1% Penicillin/Streptomycin, 200 μg/ml zeocin, 50 μg/ml hygromycin and 100 μg/ml geneticin (Invitrogen, USA). Cells are detached with trypsin, resuspended in medium and then counted.
Compounds (10 mM stock in DMSO) are diluted first in DMSO. The pre-diluted compounds solutions are then transferred into Assay Medium/0.1% fatty acid free BSA to reach a fourfold concentrated compound stock, which is applied to the cells to reach the final compound concentrations that range from 10 μM to 0.0005 nM (0.5% final DMSO). Cells are then incubated for 16 h at 37° C. and 5% CO2.

circulating lymphocytes = test: Assessment of in vivo efficacy: circulating lymphocytes after oral administration to Wistar rats; design: species or system rat; conditions: Rattus norvegicus, Lymphocyte, normotensive male Wistar rats, compared to vehicle group, read-out: Lymphocyte counts; for change in vivo at 10 mg/kg: 6 h after oral administration of 10 mg/kg; for change in vivo at 3 mg/kg: 6 h after an oral dose of 3 mg/kg
Description: Assessment of In Vivo Efficacy
The efficacy of the compounds of Formula (I) is assessed by measuring the circulating lymphocytes after oral administration of 3 to 30 mg/kg of a compound of Formula (I) to normotensive male Wistar rats. The animals are housed in climate-controlled conditions with a 12 h-light/dark cycle, and have free access to normal rat chow and drinking water. […] Full blood is subjected to hematology using Advia Hematology system (Bayer Diagnostics, Zurich, Switzerland).
All data are presented as mean±SEM. Statistical analyses are performed by analysis of variance (ANOVA) using Statistica (StatSoft) and the Student-Newman-Keuls procedure for multiple comparisons. The null hypothesis is rejected when p<0.05.

T1 sequence (P21453 whole entry): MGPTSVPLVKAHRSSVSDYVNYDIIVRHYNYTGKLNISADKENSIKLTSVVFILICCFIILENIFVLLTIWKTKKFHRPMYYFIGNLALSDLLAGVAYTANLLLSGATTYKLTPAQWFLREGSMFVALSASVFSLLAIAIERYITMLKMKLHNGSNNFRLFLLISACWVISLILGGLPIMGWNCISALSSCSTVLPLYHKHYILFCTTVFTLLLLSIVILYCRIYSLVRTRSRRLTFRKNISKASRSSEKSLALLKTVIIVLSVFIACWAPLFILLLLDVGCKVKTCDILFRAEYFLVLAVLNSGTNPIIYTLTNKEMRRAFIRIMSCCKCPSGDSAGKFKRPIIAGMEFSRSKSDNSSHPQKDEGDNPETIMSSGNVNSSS

## CCc1cc(-c2noc(-c3cc(OC)nc(C4CCCC4)c3)n2)cc(C)c1OCCN(C)CC(=O)O [Example 16, 2-((2-(4-(5-(2-Cyclopentyl-6-methoxypyridin-4-yl)-1,2,4-oxadiazol-3-yl)-2-ethyl-6-methylphenoxy)ethyl)(methyl)amino)acetic acid]
[1]
  EC50: 0.2 nM
Circulating lymphocytes
  change in vivo at 10 mg/kg: -75%

## CCc1cc(-c2noc(-c3cc(OC)nc(C4CCCC4)c3)n2)cc(C)c1OCCCNCC(=O)O [Example 18, 2-((3-(4-(5-(2-Cyclopentyl-6-methoxypyridin-4-yl)-1,2,4-oxadiazol-3-yl)-2-ethyl-6-methylphenoxy)propyl)amino)acetic acid]
[1]
  EC50: 0.3 nM
Circulating lymphocytes
  change in vivo at 10 mg/kg: -24%

## CCc1cc(-c2noc(-c3cc(OC)nc(C4CCCC4)c3)n2)cc(C)c1OCCCN(C)CC(=O)O [Example 20, 2-((3-(4-(5-(2-Cyclopentyl-6-methoxypyridin-4-yl)-1,2,4-oxadiazol-3-yl)-2-ethyl-6-methylphenoxy)propyl)(methyl)amino)acetic acid]
[1]
  EC50: 1.5 nM
Circulating lymphocytes
  change in vivo at 10 mg/kg: -57%

## CCc1cc(-c2noc(-c3cc(OC)nc(C4CCCC4)c3)n2)cc(C)c1OCCCN(C)CCC(=O)O [Example 21, 3-((3-(4-(5-(2-Cyclopentyl-6-methoxypyridin-4-yl)-1,2,4-oxadiazol-3-yl)-2-ethyl-6-methylphenoxy)propyl)(methyl)amino)propanoic acid]
[1]
  EC50: 0.659 nM
Circulating lymphocytes
  change in vivo at 10 mg/kg: -74%

## CCc1cc(-c2noc(-c3cc(OC)nc(C4CCCC4)c3)n2)cc(C)c1OCCCNC(=O)CO [Example 29, N-(3-(4-(5-(2-Cyclopentyl-6-methoxypyridin-4-yl)-1,2,4-oxadiazol-3-yl)-2-ethyl-6-methylphenoxy)propyl)-2-hydroxyacetamide]
[1]
  EC50: 0.265 nM
Circulating lymphocytes
  change in vivo at 10 mg/kg: -76%

## CCc1cc(-c2noc(-c3cc(OC)nc(C4CCCC4)c3)n2)cc(C)c1OCCCN(C)C(=O)CO [Example 30, N-(3-(4-(5-(2-Cyclopentyl-6-methoxypyridin-4-yl)-1,2,4-oxadiazol-3-yl)-2-ethyl-6-methylphenoxy)propyl)-2-hydroxy-N-methylacetamide]
[1]
  EC50: 7.98 nM
Circulating lymphocytes
  change in vivo at 10 mg/kg: -75%

## CCc1cc(-c2noc(-c3cc(OC)nc(C4CCCC4)c3)n2)cc(C)c1OCCCNC(=O)CC(=O)O [Example 31, 3-((3-(4-(5-(2-Cyclopentyl-6-methoxypyridin-4-yl)-1,2,4-oxadiazol-3-yl)-2-ethyl-6-methylphenoxy)propyl)amino)-3-oxopropanoic acid]
[1]
  EC50: 0.0716 nM
Circulating lymphocytes
  change in vivo at 10 mg/kg: -68%

## CCc1cc(-c2noc(-c3cc(OC)nc(C4CCCC4)c3)n2)cc(C)c1OCCCN(C)C(=O)CC(=O)O [Example 33, 3-((3-(4-(5-(2-Cyclopentyl-6-methoxypyridin-4-yl)-1,2,4-oxadiazol-3-yl)-2-ethyl-6-methylphenoxy)propyl)(methyl)amino)-3-oxopropanoic acid]
[1]
  EC50: 0.501 nM
Circulating lymphocytes
  change in vivo at 10 mg/kg: -78%

## CCc1cc(-c2noc(-c3cc(OC)nc(C4CCCC4)c3)n2)cc(C)c1OCCCN(C)C(=O)CCC(=O)O [Example 34, 4-((3-(4-(5-(2-Cyclopentyl-6-methoxypyridin-4-yl)-1,2,4-oxadiazol-3-yl)-2-ethyl-6-methylphenoxy)propyl)(methyl)amino)-4-oxobutanoic acid]
[1]
  EC50: 0.515 nM
Circulating lymphocytes
  change in vivo at 10 mg/kg: -66%

## COc1cc(-c2nc(-c3cc(Cl)c(OCCCC(=O)NCCO)c(OC)c3)no2)cc(C2CCCC2)n1 [Example 36, 4-(2-Chloro-4-(5-(2-cyclopentyl-6-methoxypyridin-4-yl)-1,2,4-oxadiazol-3-yl)-6-methoxyphenoxy)-N-(2-hydroxyethyl)butanamide]
[1]
  EC50: 1.7 nM
Circulating lymphocytes
  change in vivo at 10 mg/kg: -73%

## COc1cc(-c2nc(-c3cc(Cl)c(OCCNCCC(=O)O)c(OC)c3)no2)cc(C2CCCC2)n1 [Example 37, 3-((2-(2-Chloro-4-(5-(2-cyclopentyl-6-methoxypyridin-4-yl)-1,2,4-oxadiazol-3-yl)-6-methoxyphenoxy)ethyl)amino)propanoic acid]
[1]
  EC50: 0.2 nM
Circulating lymphocytes
  change in vivo at 10 mg/kg: -71%

## CCc1cc(-c2noc(-c3cc(OC)nc(C4CCCC4)c3)n2)cc(C)c1OCCNCCCC(=O)O [Example 39, 4-((2-(4-(5-(2-Cyclopentyl-6-methoxypyridin-4-yl)-1,2,4-oxadiazol-3-yl)-2-ethyl-6-methylphenoxy)ethyl)amino)butanoic acid]
[1]
  EC50: 0.1 nM
Circulating lymphocytes
  change in vivo at 10 mg/kg: -66%

## COc1cc(-c2nc(-c3cc(C)c(OCCCC(=O)O)c(Cl)c3)no2)cc(C2CCCC2)n1 [Example 40, 4-(2-Chloro-4-(5-(2-cyclopentyl-6-methoxypyridin-4-yl)-1,2,4-oxadiazol-3-yl)-6-methylphenoxy)butanoic acid]
[1]
  EC50: 0.05 nM
Circulating lymphocytes
  change in vivo at 10 mg/kg: -65%

## COc1cc(-c2nc(-c3cc(C)c(OCC(=O)NCCO)c(Cl)c3)no2)cc(C2CCCC2)n1 [Example 42, 2-(2-Chloro-4-(5-(2-cyclopentyl-6-methoxypyridin-4-yl)-1,2,4-oxadiazol-3-yl)-6-methyl-phenoxy)-N-(2-hydroxyethyl)acetamide]
[1]
  EC50: 0.4 nM
Circulating lymphocytes
  change in vivo at 10 mg/kg: -75%

## COc1cc(-c2nc(-c3cc(C)c(OCCNCCC(=O)O)c(Cl)c3)no2)cc(C2CCCC2)n1 [Example 43, 3-((2-(2-Chloro-4-(5-(2-cyclopentyl-6-methoxypyridin-4-yl)-1,2,4-oxadiazol-3-yl)-6-methylphenoxy)ethyl)amino)propanoic acid]
[1]
  EC50: 0.1 nM
Circulating lymphocytes
  change in vivo at 10 mg/kg: -62%

## COc1cc(-c2nc(-c3cc(C)c(OCCN4CC(C(=O)O)C4)c(Cl)c3)no2)cc(C2CCCC2)n1 [Example 44, 1-(2-(2-Chloro-4-(5-(2-cyclopentyl-6-methoxypyridin-4-yl)-1,2,4-oxadiazol-3-yl)-6-methylphenoxy)ethyl)azetidine-3-carboxylic acid]
[1]
  EC50: 0.1 nM
Circulating lymphocytes
  change in vivo at 10 mg/kg: -62%

## CCc1cc(-c2noc(-c3cc(OC)nc(C4CCCC4)c3)n2)cc(C)c1OCCNC(=O)CC(=O)O [Example 49, 3-((2-(4-(5-(2-Cyclopentyl-6-methoxypyridin-4-yl)-1,2,4-oxadiazol-3-yl)-2-ethyl-6-methylphenoxy)ethyl)amino)-3-oxopropanoic acid]
[1]
  EC50: 0.05 nM
Circulating lymphocytes
  change in vivo at 3 mg/kg: -49%

## COc1cc(-c2nc(-c3cc(Cl)c(OCCNCC(=O)O)c(OC)c3)no2)cc(C2CCCC2)n1 [Example 51, 2-((2-(2-Chloro-4-(5-(2-cyclopentyl-6-methoxypyridin-4-yl)-1,2,4-oxadiazol-3-yl)-6-methoxyphenoxy)ethyl)amino)acetic acid]
[1]
  EC50: 0.7 nM
Circulating lymphocytes
  change in vivo at 3 mg/kg: -22%

## COc1cc(-c2nc(-c3cc(Cl)c(OCCN4CC(C(=O)O)C4)c(OC)c3)no2)cc(C2CCCC2)n1 [Example 52, 1-(2-(2-Chloro-4-(5-(2-cyclopentyl-6-methoxypyridin-4-yl)-1,2,4-oxadiazol-3-yl)-6-methoxyphenoxy)ethyl)azetidine-3-carboxylic acid]
[1]
  EC50: 0.6 nM
Circulating lymphocytes
  change in vivo at 10 mg/kg: -71%

## CCc1cc(-c2nc(-c3cc(OC)nc(C4CCCC4)c3)no2)cc(C)c1OCC(=O)O [Example 53, 2-(4-(3-(2-Cyclopentyl-6-methoxypyridin-4-yl)-1,2,4-oxadiazol-5-yl)-2-ethyl-6-methylphenoxy)acetic acid]
[1]
  EC50: 1.2 nM
Circulating lymphocytes
  change in vivo at 10 mg/kg: -72%

## CCc1cc(-c2nc(-c3cc(OC)nc(C4CCCC4)c3)no2)cc(C)c1OCCNCC(=O)O [Example 55, 2-((2-(4-(3-(2-Cyclopentyl-6-methoxypyridin-4-yl)-1,2,4-oxadiazol-5-yl)-2-ethyl-6-methylphenoxy)ethyl)amino)acetic acid]
[1]
  EC50: 0.1 nM
Circulating lymphocytes
  change in vivo at 10 mg/kg: -72%

## CCc1cc(-c2nc(-c3cc(OC)nc(C4CCCC4)c3)no2)cc(C)c1OCCNCCC(=O)O [Example 57, 3-((2-(4-(3-(2-Cyclopentyl-6-methoxypyridin-4-yl)-1,2,4-oxadiazol-5-yl)-2-ethyl-6-methylphenoxy)ethyl)amino)propanoic acid]
[1]
  EC50: 0.05 nM
Circulating lymphocytes
  change in vivo at 10 mg/kg: -74%

From patent publication US9133179B2, “2-methoxy-pyridin-4-yl-derivatives” (Actelion Pharmaceuticals Ltd., priority 2011, dated 2015)
